Data taken from ChEMBL document CHEMBL3232804, “Synthesis and evaluation of new diaryl ether and quinoline hybrids as potential antiplasmodial and antimicrobial agents” (Bioorg Med Chem Lett, 2014).
≈ marks a conversion by molar mass, not a printed value.

Columns and labels:
[1] = test system: Aspergillus fumigatus; assay: Antifungal activity against Aspergillus fumigatus clinical isolate after 72 to 96 hrs by standard broth microdilution method; format: functional
[2] = test system: Pseudomonas aeruginosa; assay: Antimicrobial activity against Pseudomonas aeruginosa ATCC BAA-427 after 24 hrs by standard broth microdilution method; format: functional
[3] = test system: Staphylococcus aureus; assay: Antimicrobial activity against Staphylococcus aureus ATCC 25923 after 24 hrs by standard broth microdilution method; format: functional
[4] = test system: Cryptococcus neoformans; assay: Antifungal activity against Cryptococcus neoformans clinical isolate after 24 to 48 hrs by standard broth microdilution method; format: functional
[5] = test system: Candida parapsilosis; assay: Antifungal activity against Candida parapsilosis ATCC […] after 72 to 96 hrs by standard broth microdilution method; format: functional; conditions: Lodderomyces parapsilosis
[6] = test system: Klebsiella pneumoniae; assay: Antimicrobial activity against Klebsiella pneumoniae ATCC 27736 after 24 hrs by standard broth microdilution method; format: functional
[7] = test system: Plasmodium falciparum; assay: Antiplasmodial activity against chloroquine-sensitive Plasmodium falciparum 3D7 infected after 72 hrs by Malaria SYBR Green I-staining based fluorescence assay; format: functional, organism-based; conditions: 3D7, 72 h
[8] = test system: Sporothrix schenckii; assay: Antifungal activity against Sporothrix schenckii clinical isolate after 72 to 96 hrs by standard broth microdilution method; format: functional
[9] = test system: Plasmodium falciparum; assay: Antiplasmodial activity against chloroquine-resistant Plasmodium falciparum K1 infected after 72 hrs by Malaria SYBR Green I-staining based fluorescence assay; format: functional, organism-based; conditions: K1, 72 h
[10] = test system: Escherichia coli; assay: Antimicrobial activity against Escherichia coli ATCC 9637 after 24 hrs by standard broth microdilution method; format: functional
[11] = test system: Trichophyton mentagrophytes; assay: Antifungal activity against Trichophyton mentagrophytes clinical isolate after 72 to 96 hrs by standard broth microdilution method; format: functional
[12] = Selectivity index, ratio of IC50 for african green monkey Vero cells to IC50 for chloroquine-sensitive Plasmodium falciparum 3D7; format: toxicity, cell-based; conditions: read-out: Ratio IC50
[13] = test system: Candida albicans; assay: Antifungal activity against Candida albicans clinical isolate after 24 to 48 hrs by standard broth microdilution method; format: functional

Compound	MIC [1]	MIC ([2]; ATCC BAA-427, 24 h)	MIC ([3]; ATCC 25923, 24 h)	MIC [4]	MIC [5]	MIC ([6]; ATCC 27736, 24 h)	IC50 [7]	MIC [8]	IC50 [9]	MIC ([10]; ATCC 9637, 24 h)	MIC [11]	selectivity ratio [12]	MIC [13]	MIC [2]	MIC [3]	MIC [6]	MIC [10]
COC(=O)/C(C)=C/c1ccc(Oc2ccc(N/C(=N/c3ccccc3)NCCCNc3ccnc4cc(Cl)ccc34)cc2)cc1	25 mg/L (≈ 40.3 µM)	> 50 mg/L	25 mg/L (≈ 40.3 µM)	6.25 mg/L (≈ 10.1 µM)	25 mg/L (≈ 40.3 µM)	> 50 mg/L	0.0782 µM	6.25 mg/L (≈ 10.1 µM)	> 0.8 µM	50 mg/L (≈ 80.6 µM)	12.5 mg/L (≈ 20.2 µM)	84.3	6.25 mg/L (≈ 10.1 µM)				
OC(Cn1cncn1)(Cn1cncn1)c1ccc(F)cc1F [FLUCONAZOLE]	2 mg/L (≈ 6.53 µM)			1 mg/L (≈ 3.27 µM)	1 mg/L (≈ 3.27 µM)			2 mg/L (≈ 6.53 µM)			1 mg/L (≈ 3.27 µM)		0.5 mg/L (≈ 1.63 µM)				
COc1ccc(Oc2ccc(N/C(=N/c3cccc(Cl)c3)NCCNc3ccnc4cc(Cl)ccc34)cc2)cc1	> 50 mg/L	> 50 mg/L	12.5 mg/L (≈ 21.8 µM)	> 50 mg/L	> 50 mg/L	12.5 mg/L (≈ 21.8 µM)	0.0887 µM	12.5 mg/L (≈ 21.8 µM)	0.0833 µM	12.5 mg/L (≈ 21.8 µM)	12.5 mg/L (≈ 21.8 µM)	91.3	25 mg/L (≈ 43.7 µM)				
COc1ccc(Oc2ccc(N/C(=N/c3ccccc3)NCCNc3ccnc4cc(Cl)ccc34)cc2)cc1	25 mg/L (≈ 46.5 µM)	> 50 mg/L	6.25 mg/L (≈ 11.6 µM)	50 mg/L (≈ 92.9 µM)	25 mg/L (≈ 46.5 µM)	12.5 mg/L (≈ 23.2 µM)	> 0.9 µM	12.5 mg/L (≈ 23.2 µM)	0.635 µM	6.25 mg/L (≈ 11.6 µM)	12.5 mg/L (≈ 23.2 µM)		25 mg/L (≈ 46.5 µM)				
COC(=O)/C(C)=C/c1ccc(Oc2ccccc2N/C(=N/c2cccc(Cl)c2)NC2CC2)cc1	> 50 mg/L	> 50 mg/L	25 mg/L (≈ 52.5 µM)	> 50 mg/L	> 50 mg/L	12.5 mg/L (≈ 26.3 µM)	> 1.2 µM	> 50 mg/L	> 1.2 µM	> 50 mg/L	25 mg/L (≈ 52.5 µM)		50 mg/L (≈ 105 µM)				
Clc1cccc(/N=C(\NCCCNc2ccnc3cc(Cl)ccc23)Nc2ccc(Oc3cc(Cl)ccc3Cl)cc2)c1	12.5 mg/L (≈ 20 µM)	> 50 mg/L	12.5 mg/L (≈ 20 µM)	6.25 mg/L (≈ 9.99 µM)	25 mg/L (≈ 40 µM)	> 50 mg/L	0.0762 µM	3.12 mg/L (≈ 4.99 µM)	> 0.8 µM	6.25 mg/L (≈ 9.99 µM)	6.25 mg/L (≈ 9.99 µM)	44.5	3.12 mg/L (≈ 4.99 µM)				
COC(=O)/C(C)=C/c1ccc(Oc2ccc(N/C(=N/c3ccc(Cl)cc3)NCCCNc3ccnc4cc(Cl)ccc34)cc2)cc1	50 mg/L (≈ 76.4 µM)	> 50 mg/L	12.5 mg/L (≈ 19.1 µM)	12.5 mg/L (≈ 19.1 µM)	12.5 mg/L (≈ 19.1 µM)	50 mg/L (≈ 76.4 µM)	0.0385 µM	6.25 mg/L (≈ 9.55 µM)	0.198 µM	12.5 mg/L (≈ 19.1 µM)	12.5 mg/L (≈ 19.1 µM)	100	12.5 mg/L (≈ 19.1 µM)				
COC(=O)/C(C)=C/c1ccc(Oc2ccccc2N/C(=N/c2ccc(Cl)cc2)NCCNc2ccnc3cc(Cl)ccc23)cc1	> 50 mg/L	> 50 mg/L	1.56 mg/L (≈ 2.44 µM)	50 mg/L (≈ 78.1 µM)	> 50 mg/L	> 50 mg/L	0.0515 µM	50 mg/L (≈ 78.1 µM)	0.419 µM	50 mg/L (≈ 78.1 µM)	50 mg/L (≈ 78.1 µM)	46.2	50 mg/L (≈ 78.1 µM)				
COc1ccc(Oc2ccccc2N/C(=N/c2ccccc2)NCCNc2ccnc3cc(Cl)ccc23)cc1	> 50 mg/L	> 50 mg/L	50 mg/L (≈ 92.9 µM)	> 50 mg/L	> 50 mg/L	> 50 mg/L	0.042 µM	50 mg/L (≈ 92.9 µM)	0.193 µM	> 50 mg/L	> 50 mg/L		> 50 mg/L				
COc1ccc(Oc2ccccc2N/C(=N/c2cccc(Cl)c2)NCCCNc2ccnc3cc(Cl)ccc23)cc1	> 50 mg/L	> 50 mg/L	3.12 mg/L (≈ 5.32 µM)	50 mg/L (≈ 85.2 µM)	50 mg/L (≈ 85.2 µM)	25 mg/L (≈ 42.6 µM)	0.369 µM	6.25 mg/L (≈ 10.7 µM)		3.12 mg/L (≈ 5.32 µM)	6.25 mg/L (≈ 10.7 µM)	10.4	6.25 mg/L (≈ 10.7 µM)				
COC(=O)/C(C)=C/c1ccc(Oc2ccccc2N/C(=N/c2cccc(Cl)c2)NCc2ccccc2)cc1	> 50 mg/L	> 50 mg/L	> 50 mg/L	> 50 mg/L	> 50 mg/L	12.5 mg/L (≈ 23.8 µM)	> 0.8 µM	> 50 mg/L	> 1.2 µM	> 50 mg/L	> 50 mg/L		> 50 mg/L				
COc1cccc(OC)c1C(=O)N[C@@H]1C(=O)N2[C@@H]1SC(C)(C)[C@@H]2C(=O)O [METHICILLIN]		> 50 mg/L	1.56 mg/L (≈ 4.1 µM)			> 50 mg/L				> 50 mg/L							
Clc1ccc(/N=C(\NCCCNc2ccnc3cc(Cl)ccc23)Nc2ccc(Oc3cc(Cl)ccc3Cl)cc2)cc1	> 50 mg/L	> 50 mg/L	> 50 mg/L	> 50 mg/L	> 50 mg/L	> 50 mg/L	> 0.8 µM	50 mg/L (≈ 80 µM)	> 0.8 µM	> 50 mg/L	50 mg/L (≈ 80 µM)		> 50 mg/L				
GENTAMICIN SULFATE														0.39 mg/L	1.56 mg/L	1.56 mg/L	1.56 mg/L
COc1ccc(Oc2ccccc2N/C(=N/c2ccc(Cl)cc2)NCCNc2ccnc3cc(Cl)ccc23)cc1		> 50 mg/L	12.5 mg/L (≈ 21.8 µM)	25 mg/L (≈ 43.7 µM)		> 50 mg/L	0.103 µM	12.5 mg/L (≈ 21.8 µM)	0.329 µM	50 mg/L (≈ 87.3 µM)		172	50 mg/L (≈ 87.3 µM)				
C[C@@H]1[C@H](O)[C@@H](C)/C=C/C=C/C=C/C=C/C=C/C=C/C=C/[C@H](O[C@@H]2O[C@H](C)[C@@H](O)[C@H](N)[C@@H]2O)C[C@@H]2O[C@](O)(C[C@@H](O)C[C@@H](O)[C@H](O)CC[C@@H](O)C[C@@H](O)CC(=O)O[C@H]1C)C[C@H](O)[C@H]2C(=O)O [AMPHOTERICIN B]	0.5 mg/L (≈ 0.541 µM)			0.06 mg/L (≈ 0.0649 µM)	0.12 mg/L (≈ 0.13 µM)			0.12 mg/L (≈ 0.13 µM)			0.12 mg/L (≈ 0.13 µM)		0.12 mg/L (≈ 0.13 µM)				
COC(=O)/C(C)=C/c1ccc(Oc2ccccc2N/C(=N/c2ccccc2)NCCNc2ccnc3cc(Cl)ccc23)cc1	> 50 mg/L	> 50 mg/L	> 50 mg/L	> 50 mg/L	> 50 mg/L	> 50 mg/L	> 0.8 µM	> 50 mg/L	0.169 µM	> 50 mg/L	> 50 mg/L		> 50 mg/L				
CN[C@H](CC(C)C)C(=O)N[C@H]1C(=O)N[C@@H](CC(N)=O)C(=O)N[C@H]2C(=O)N[C@H]3C(=O)N[C@H](C(=O)N[C@H](C(=O)O)c4cc(O)cc(O)c4-c4cc3ccc4O)[C@H](O)c3ccc(c(Cl)c3)Oc3cc2cc(c3O[C@@H]2O[C@H](CO)[C@@H](O)[C@H](O)[C@H]2O[C@H]2C[C@](C)(N)[C@H](O)[C@H](C)O2)Oc2ccc(cc2Cl)[C@H]1O [VANCOMYCIN]		> 50 mg/L	0.78 mg/L (≈ 0.538 µM)			> 50 mg/L				> 50 mg/L							
COc1ccc(Oc2ccccc2N/C(=N/c2ccc(Cl)cc2)NCCCNc2ccnc3cc(Cl)ccc23)cc1		50 mg/L (≈ 85.2 µM)	> 50 mg/L	50 mg/L (≈ 85.2 µM)		50 mg/L (≈ 85.2 µM)	0.241 µM	25 mg/L (≈ 42.6 µM)	> 0.8 µM	> 50 mg/L		123	> 50 mg/L				
COC(=O)/C(C)=C/c1ccc(Oc2ccccc2N/C(=N/c2ccccc2)NC2CC2)cc1	> 50 mg/L	> 50 mg/L	> 50 mg/L	> 50 mg/L	> 50 mg/L	12.5 mg/L (≈ 28.3 µM)	> 1.2 µM	> 50 mg/L	> 1.2 µM	> 50 mg/L	> 50 mg/L		> 50 mg/L				
COc1ccc(Oc2ccccc2N/C(=N/c2ccccc2)NCCCNc2ccnc3cc(Cl)ccc23)cc1	50 mg/L (≈ 90.6 µM)	> 50 mg/L	50 mg/L (≈ 90.6 µM)	> 50 mg/L	50 mg/L (≈ 90.6 µM)	> 50 mg/L	0.12 µM	50 mg/L (≈ 90.6 µM)		50 mg/L (≈ 90.6 µM)	> 50 mg/L		50 mg/L (≈ 90.6 µM)				
COc1ccc(Oc2ccccc2N/C(=N/c2ccccc2)NCCCCNc2ccnc3cc(Cl)ccc23)cc1	50 mg/L (≈ 88.3 µM)	> 50 mg/L	> 50 mg/L	> 50 mg/L	> 50 mg/L	> 50 mg/L	0.109 µM	50 mg/L (≈ 88.3 µM)	> 1 µM	> 50 mg/L	> 50 mg/L		> 50 mg/L				
COc1ccc(Oc2ccccc2N/C(=N/c2ccc(Cl)cc2)NCCCCNc2ccnc3cc(Cl)ccc23)cc1		> 50 mg/L	50 mg/L (≈ 83.3 µM)	50 mg/L (≈ 83.3 µM)		> 50 mg/L	0.124 µM	25 mg/L (≈ 41.6 µM)	> 0.8 µM	> 50 mg/L		62.8	50 mg/L (≈ 83.3 µM)				
CCn1cc(C(=O)O)c(=O)c2cc(F)c(N3CCNCC3)cc21 [NORFLOXACIN]		0.3 mg/L (≈ 0.939 µM)	0.78 mg/L (≈ 2.44 µM)			0.36 mg/L (≈ 1.13 µM)				0.36 mg/L (≈ 1.13 µM)							
COC(=O)/C(C)=C/c1ccc(Oc2ccccc2N/C(=N/c2ccccc2)NCc2ccccc2)cc1	> 50 mg/L	> 50 mg/L	25 mg/L (≈ 50.9 µM)	> 50 mg/L	> 50 mg/L	12.5 mg/L (≈ 25.4 µM)	> 1.2 µM	> 50 mg/L	> 1.2 µM	> 50 mg/L	> 50 mg/L		> 50 mg/L				
